Test results taken from PMC5645531, “Probing the Single Key Amino Acid Responsible for the Novel Catalytic Function of ent-Kaurene Oxidase Supported by NADPH-Cytochrome P450 Reductases in Tripterygium wilfordii” (Frontiers in Plant Science, 2017).

Biological target: T1, TwKO (Tripterygium wilfordii, UniProt A0A2S0H3R9)
T1 construct: full-length ORF co-expressed from pESC-Leu with a TwCPR (all four tested, TwCPR3 best) in Saccharomyces cerevisiae BY-T20; with NADPH--cytochrome P450 reductase 3
Test: GC-MS of methylated yeast culture extracts
Assay type: cell-based
Settings: co-expressed TwCPR; substrate made in vivo by TwCPS3/TwKSL2:A608M; product ent-kaurenoic acid; 30 °C

T1 sequence (A0A2S0H3R9 1-509): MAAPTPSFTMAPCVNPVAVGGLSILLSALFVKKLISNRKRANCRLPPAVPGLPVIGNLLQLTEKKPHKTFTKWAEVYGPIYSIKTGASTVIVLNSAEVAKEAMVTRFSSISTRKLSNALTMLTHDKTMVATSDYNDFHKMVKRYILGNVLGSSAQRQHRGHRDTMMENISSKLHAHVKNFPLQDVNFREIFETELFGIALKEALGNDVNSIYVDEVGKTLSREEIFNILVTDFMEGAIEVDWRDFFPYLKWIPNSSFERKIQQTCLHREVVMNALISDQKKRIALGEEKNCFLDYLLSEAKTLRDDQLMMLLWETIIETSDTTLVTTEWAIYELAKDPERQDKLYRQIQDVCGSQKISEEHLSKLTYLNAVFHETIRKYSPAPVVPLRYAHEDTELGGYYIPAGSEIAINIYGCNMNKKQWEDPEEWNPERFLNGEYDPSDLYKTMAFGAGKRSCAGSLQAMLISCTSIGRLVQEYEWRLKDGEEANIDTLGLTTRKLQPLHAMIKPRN
T1 sequence (A0A808MGE5 1-690 partner): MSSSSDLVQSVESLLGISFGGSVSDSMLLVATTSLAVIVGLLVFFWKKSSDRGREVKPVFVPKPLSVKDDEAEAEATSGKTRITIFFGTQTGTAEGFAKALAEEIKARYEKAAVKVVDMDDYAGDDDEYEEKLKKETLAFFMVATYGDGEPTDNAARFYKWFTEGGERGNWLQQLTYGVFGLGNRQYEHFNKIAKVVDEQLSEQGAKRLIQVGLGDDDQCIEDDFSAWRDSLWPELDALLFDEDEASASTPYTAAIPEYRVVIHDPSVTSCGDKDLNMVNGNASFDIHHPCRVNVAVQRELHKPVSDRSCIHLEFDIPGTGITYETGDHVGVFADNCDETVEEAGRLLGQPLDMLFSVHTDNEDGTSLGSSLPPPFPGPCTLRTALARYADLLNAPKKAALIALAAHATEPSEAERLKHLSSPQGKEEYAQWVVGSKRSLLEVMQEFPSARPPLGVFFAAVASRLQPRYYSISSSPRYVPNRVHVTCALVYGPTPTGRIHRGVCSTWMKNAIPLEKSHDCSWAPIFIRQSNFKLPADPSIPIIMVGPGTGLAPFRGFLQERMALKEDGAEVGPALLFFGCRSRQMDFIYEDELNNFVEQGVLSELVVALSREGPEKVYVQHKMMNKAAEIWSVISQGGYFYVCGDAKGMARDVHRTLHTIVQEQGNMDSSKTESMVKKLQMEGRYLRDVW

C=C1C[C@@]23CC[C@@H]4C(C)(C)CCC[C@@]4(C)[C@@H]2CC[C@@H]1C3 [ent-kaurene]
GC-MS of methylated yeast culture extracts: three-stage oxidation of ent-kaurene to ent-kaurenoic acid
